# From PMC4917951, “Designing, construction and characterization of genetically encoded FRET-based nanosensor for real time monitoring of lysine flux in living cells” (Journal of Nanobiotechnology, 2016)
# Key:
# [1] = biological target: T1, FLIPK sensor protein (CFP-LAO-YFP) (Salmonella typhimurium, UniProt P02911); assay: In vitro ligand specificity of FLIPK (FRET ratio with amino acids); assay type: binding, Salmonella enterica serovar typhimurium LT2; settings: amino acids at 1 and 10 mM, purified FLIPK
# T1 construct: The first 22 amino acids (signal peptides) were removed by the help of a SignalP 4.1 server; (His)6 tag (from pRSET-B) (N); made in house; host or cells: E. coli BL21 (DE3), pRSET-B vector
# Procedure: (§1) Specificity of the sensor protein was measured by using five amino acids, arginine, leucine, lysine, ornithine and histidine at three different concentrations i.e. 0, 1.0 and 10 mM, each. FRET measurement was carried out by using a microplate reader. The excitation filter/slit used was 430 nm/20 nm and emission filters/slits for CFP and YFP were 485 nm/20 nm and 535 nm/25 nm, respectively. 180 µl of diluted sensor protein and 20 µl of substrate were taken in different well. Affinity of sensor protein was monitored by using different concentrations of lysine. All analysis was performed in 20 mM PBS buffer (pH 7.5).
# [2] = system: E. coli BL21 (DE3) cells expressing FLIPK; assay: In vivo FRET measurement in FLIPK-expressing bacterial cell suspension; assay type: cell-based; settings: for change in FRET ratio of bacterial cell suspension (in vivo specificity): incubation with amino acids for 45 min
# Procedure: In vivo analysis was performed by following the earlier protocols. […] Cultures were incubated in Luria Bertoni broth in baffled Erlenmeyer flasks for 48 h in the dark at 20 °C temperature in shaker incubator and then stored at 4 °C for overnight to ensure the proper folding of the fluorescent proteins. Then starved of nitrogen in M9 medium at 37 °C for 2 h and adjusted to OD600 3.5 and kept in 20 mM PBS buffer solution at pH 7.5. Then 180 µl of cells were dispended in the wells of microplate. 20 μl of 10 mM lysine in nitrogen starved medium grown cells were added and the fluorophores emissions were recorded for 45 min. For monitoring the accumulation rates, the injection module of microplate reader was used. Similar procedure was followed with other amino acids (arginine, ornithine, histidine) to see the specificity of FLIPK.
# FLIPK-306µ = biological target: T2, FLIPK-306µ (Salmonella enterica, UniProt P02911, R99L); assay: In vitro FRET titration of purified CFP-LAO-YFP sensor with lysine in 20 mM PBS buffer pH 7.5, YFP/CFP (535/485 nm) emission ratio in a microplate reader, fitted to a simple binding isotherm.; settings: n = 3
# T2 construct: gene argT; LAO without first 22 residues (signal peptide), CFP at N-terminus and YFP at C-terminus, N-terminal (His)6 tag, pRSET-B
# T2 sequence (P02911 23-260 R99L): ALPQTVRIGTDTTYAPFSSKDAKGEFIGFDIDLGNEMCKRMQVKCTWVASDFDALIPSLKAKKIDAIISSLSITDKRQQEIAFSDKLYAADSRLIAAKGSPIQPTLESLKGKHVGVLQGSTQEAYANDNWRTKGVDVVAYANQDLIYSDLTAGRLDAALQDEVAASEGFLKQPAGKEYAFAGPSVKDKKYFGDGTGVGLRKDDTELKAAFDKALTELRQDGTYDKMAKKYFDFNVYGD
# Procedure: as §1
# (§2) To determine the Kd of the FLIPK sensors, sensor protein was mixed with different concentrations of lysine in 20 mM PBS buffer (pH 7.5) and YFP/CFP ratio was recorded. By using the ratio change on ligand binding, binding constants (Kd) were determined by fitting ligand titration curve in a simple binding isotherm: S=(r-rapo)/(rsat-rapo)=L/Kd+L , where S is saturation; [L] is ligand concentration; r is ratio; rapo is ratio in the absence of ligand and rsat is ratio at saturation with ligand. All analyses were carried out with three independent protein preparations. FRET was used to characterize the sensor protein with various parameters. The FRET ratio was determined as fluorescence intensity at 535 nm (YFP) divided by fluorescence intensity at 485 nm (CFP).
# FLIPK-97µ (FLIPK, WT) = biological target: T3, FLIPK-97µ (FLIPK, WT) (Salmonella enterica, UniProt P02911); assay: as above; settings: n = 3
# T3 construct: gene argT; LAO without first 22 residues (signal peptide), CFP at N-terminus and YFP at C-terminus, N-terminal (His)6 tag, pRSET-B
# Procedure: as §1, §2
# FLIPK-142µ = biological target: T4, FLIPK-142µ (Salmonella enterica, UniProt P02911, Y36A); assay: as above; settings: n = 3
# T4 construct: gene argT; LAO without first 22 residues (signal peptide), CFP at N-terminus and YFP at C-terminus, N-terminal (His)6 tag, pRSET-B
# T4 sequence (P02911 23-260 Y36A): T2 sequence (P02911 23-260 R99L)
# Procedure: as §1, §2
# FLIPK-2 m = biological target: T5, FLIPK-2 m (Salmonella enterica, UniProt P02911, D183I); assay: as above; settings: n = 3
# T5 construct: gene argT; LAO without first 22 residues (signal peptide), CFP at N-terminus and YFP at C-terminus, N-terminal (His)6 tag, pRSET-B
# T5 sequence (P02911 23-260 D183I): T2 sequence (P02911 23-260 R99L)
# Procedure: as §1, §2
# FLIPK-14 µ = biological target: T6, FLIPK-14 µ (Salmonella enterica, UniProt P02911, F74A); assay: as above; settings: n = 3
# T6 construct: gene argT; LAO without first 22 residues (signal peptide), CFP at N-terminus and YFP at C-terminus, N-terminal (His)6 tag, pRSET-B
# T6 sequence (P02911 23-260 F74A): T2 sequence (P02911 23-260 R99L)
# Procedure: as §1, §2
# FLIPK-30µ = biological target: T7, FLIPK-30µ (Salmonella enterica, UniProt P02911, S94A); assay: as above; settings: n = 3
# T7 construct: gene argT; LAO without first 22 residues (signal peptide), CFP at N-terminus and YFP at C-terminus, N-terminal (His)6 tag, pRSET-B
# T7 sequence (P02911 23-260 S94A): T2 sequence (P02911 23-260 R99L)
# Procedure: as §1, §2
# [3] = biological target: lysine binding periplasmic protein (LAO); set-up: method as in PMID 1400387; settings: read-out: Kd for lysine by equilibrium dialysis; cited from earlier work
# [4] = system: S. cerevisiae/URA3 strain BY4742 expressing FLIPK; assay: Confocal FRET imaging of lysine uptake in FLIPK-expressing yeast cells; assay type: cell-based
# Procedure: For expression of FLIPK, S. cerevisiae/URA3 strain BY4742 was used as the eukaryotic host system. The yeast cells were grown and transformed by pYES-DEST-CFP-LAO-YFP vector in which the expression of CFP-LAO-YFP gene was controlled by GAL1 promoter. The transformed yeast cells were grown for 3–5 days in Synthetic Defined (SD)-growth and 1 % galactose as inducer. Imaging of expressed yeast cells were performed on confocal microscope (Leica DMRE) equipped with a confocal head TCS-SPE (Leica, Wetzlar, Germany). The yeast cells were fixed on glass slides by using medical adhesive rinsed with the growth medium and covered by a cover slip. To measure the lysine in yeast cells, dual emission intensity ratio was recorded by using LAS-AF software (Leica, Wetzlar, Germany) with 436 nm/20 nm excitation, two emission filters i.e. 480 nm/40 nm for CFP and 535/30 nm for YFP. For recording the data, FRET sensitized emission tool without background subtraction of the Leica confocal software. The data was further processed by using Adobe Photoshop. Images of single cell and multiple cells were captured by selecting the region of interest (ROI). Similar procedure was followed for the imaging of expressed bacterial cells.
structure (smiles),measurement,setting,value
N=C(N)NCCC[C@H](N)C(=O)O [arginine],change in FRET ratio of FLIPK (ligand specificity),[1],non-significant change in FRET ratio
same,change in FRET ratio of bacterial cell suspension (in vivo specificity),[2],did not change the FRET ratio
N[C@@H](Cc1c[nH]cn1)C(=O)O [histidine],change in FRET ratio of FLIPK (ligand specificity),[1],non-significant change in FRET ratio
same,change in FRET ratio of bacterial cell suspension (in vivo specificity),[2],did not change the FRET ratio
CC(C)C[C@H](N)C(=O)O [leucine],change in FRET ratio of FLIPK (ligand specificity),[1],non-significant change in FRET ratio
"NCCCC[C@H](N)C(=O)O [lysine, L-lysine]",Kd,FLIPK-306µ,306 µM
same,Kd,"FLIPK-97µ (FLIPK, WT)",97 µM
same,Kd,FLIPK-142µ,142 µM
same,Kd,FLIPK-2 m,2000 µM
same,Kd,FLIPK-14 µ,14 µM
same,Kd,FLIPK-30µ,30 µM
NCCCC[C@H](N)C(=O)O [lysine],Kd,[3],0.015 µM
same,change in FRET ratio of FLIPK (ligand specificity),[1],significant increase in the FRET ratio
same,increase of 535 nm/485 nm emission intensity ratio,"[4]; 100 mM extracellular lysine, single yeast cell",2.0
same,time up to which 535 nm/485 nm ratio increased before saturation,[4]; after addition of lysine,255 s
same,time after which FRET ratio increased distinctly,[2]; 10 mM lysine added externally,5 min
same,time at which FRET ratio of the cell suspensions saturated,"[2]; 10 mM lysine added externally, 20 mM PBS buffer",45 min
same,time within which uptake of lysine saturated,[2]; at 10 mM,40 to 45 min
same,change in FRET ratio of bacterial cell suspension (in vivo specificity),[2],major change
NCCC[C@H](N)C(=O)O [ornithine],change in FRET ratio of FLIPK (ligand specificity),[1],non-significant change in FRET ratio
same,change in FRET ratio of bacterial cell suspension (in vivo specificity),[2],did not change the FRET ratio
